Results: patent US20150110716A1, “METHODS OF USING SPECT/CT ANALYSIS FOR STAGING CANCER” (Molecular Insight Pharmaceuticals, Inc., priority 2013, published 2015)

Key:
[1] = Phase 1 cross-over study: pharmacokinetics, biodistribution, dosimetry, excretion; type: in vivo, human
Description: Pharmacokinetics, Biodistribution, Dosimetry, Metabolism & Excretion of compound represented by Formula (1) and Formula (2). Methods: Fourteen subjects (7 metastatic prostate cancer patients and 7 healthy, normal males) were enrolled in a phase 1, single-blind, randomized, cross-over study in which subjects were randomly administered a single dose (740 MBq; 20 mCi) of a compound represented by Formula (1) and a similar chemical analog, a compound represented by Formula (2), 14 days apart. […] (FIGS. 1 and 2A)

[2] = tested on: primary prostate cancer within the prostate gland; experiment: Phase 2 study: SPECT/CT detection of primary prostate cancer vs histopathology; type: in vivo, human
Experimental: A phase-2 study to image men with high-risk prostate cancer scheduled for radical prostatectomy (RP) and Extended Pelvic Lymph Node Dissection (EPLND) was performed using a compound according to Formula (1), as an illustrative radioimaging agent. The primary objective of the study was to assess the safety and the ability of the Formula (1) compound to detect prostate cancer within the prostate gland. Secondary objectives include (i) assess the ability of the Formula (1) compound to detect the extent and location of prostate cancer within the prostate gland, (2) assess the ability of the Formula (1) compound to detect metastatic PCa within pelvic lymph nodes and to further detect the specific location of metastatic PCa within anatomic pelvic lymph node regions, (3) compare the performance of the Formula (1) compound as a prostate cancer imaging agent to MRI and compare the ability of the Formula (1) compound to detect the specific location of metastatic PCa within pelvic lymph nodes to the ability of MRI for detecting the specific location of metastatic PCa within pelvic lymph nodes.
A Phase-2 multi-center, multi-reader, open-label trial, to assess the performance characteristics of the Formula (1) compound as an imaging agent was measured by true-positive fraction (TPF equivalent to sensitivity) and false-positive fraction (FPF, equivalent to 1-specificity). The “truth standard” for determining true-positive cases and false-positive cases were histopathology results obtained subsequent to RP and EPLND. The performance of the Formula (1) compound as an imaging agent was compared to MRI by calculating (1) the difference in correctly identified positive cases by each imaging method that also are positive by histopathology subsequent to RP and EPLND (TPF); and (2), the difference in incorrectly identified […] cases by each imaging method, that also are […] by histopathology subsequent to RP and EPLND (FPF).
Newly-diagnosed prostate cancer patients at high-risk for metastatic disease who were scheduled for RP with EPLND were enrolled in the study. […] Subjects will receive a single intravenous dose of the Formula (1) compound (study drug) followed by both whole-body planar and SPECT/CT imaging 3-6 hours after injection. As standard of care, subjects underwent RP with EPLND surgery and histological assessment of specimens no more than 3 weeks after study drug dosing. Images of the patients were evaluated for visible uptake of the Formula (1) compound within the prostate gland and by regional assessment of nodal disease. These findings were compared against histopathology results used as the truth standard.
Efficacy analyses were conducted utilizing histopathology results subsequent to radical prostatectomy and extended pelvic lymph node dissection as the truth-standard for determination of positive and negative cases. Primary efficacy analyses estimated the ability of the compound represented by Formula (1) to detect cancer in prostate glands that were confirmed as harboring tumor based on a biopsy. The primary efficacy analysis evaluated sensitivity and specificity of the compound represented by Formula (1) using 80% power to establish the lower bound of one-sided 95% confidence intervals. All subjects who receive the Formula (1) and complete surgery will be included in the primary efficacy analysis.
Patients (pts) with biopsy confirmed adenocarcinoma of the prostate scheduled for RP with extended pelvic lymph node dissection (EPLND) at high risk for disease outside of the prostate gland were eligible. High risk patients were stage of T3c or […] or a nomogram score ≧130 (Godot′ et al., Eur. Urol., (2011), p 195-201). Within 30 days of screening, the patients required a bone scan and pelvic MRI. After enrollment, the patients received a compound represented by Formula (1) at a dose of 20 mCi±3 mCi followed by whole-body planar and SPECT/CT imaging 3 to 6 hrs later. Patients then underwent RP with EPLND within 21 days. […]

[3] = Patient/Gland Level (n = 54), interim, fraction
[4] = Patient/Gland, matched vs MRI (n = 47), fraction
[5] = interim, n=54, primary prostate cancer

(OC-6-33)-tricarbonyl[N^2-{[(1S)-1,3-dicarboxypropyl]amino]carbamoyl}-L-γ-glutamyl-N^6,N^6-bis[(1-{2-[bis(carboxymethyl)amino]-2-oxoethyl]-1H-imidazol-2-yl-κN^3]methyl]-L-lysine-κN^6](^99mTc)(+)chloride [Formula (1)]
gamma radiation signal in scintigraphic images ([1]; 24 hour time point, liver, kidney, urinary bladder, prostate, lacrimal and salivary glands): near complete loss of gamma radiation signal | period over which compound is cleared from blood ([1]; FIG. 1A): about 1500 minutes | uptake in liver and kidney tissue ([1]; Formula (1) compared with Formula (2)): greater | percent intensity of signal detected as a function of drug administered ([1]; Formula (1) compared with Formula (2), every time point): greater | accumulation in the urinary bladder ([1]; in vivo): minimal accumulation | tissues of accumulation ([1]; in vivo pharmacokinetic and biodistribution studies): liver, kidneys and salivary glands as well as the urinary bladder and prostate tissue | estimated radiation dose (dosimetry) ([1]; single dose 740 MBq (20 mCi)): within the clinically acceptable range | Accuracy [2, 3]: 0.94 | NPV [2, 3]: 0.40 | PPV [2, 3]: 1.00 | Sensitivity [2, 3]: 0.84 | Specificity [2, 3]: 1.00 | Accuracy [2, 4]: 0.94 | NPV [2, 4]: 0.40 | PPV [2, 4]: 1.00 | Sensitivity [2, 4]: 0.93 | Specificity [2, 4]: 1.00 | patients in whom presence or absence of primary prostate cancer was correctly identified ([2]; interim, n=54, majority of SPECT/CT readers, histopathology as truth standard): 94% | Sensitivity [2, 5]: 94% | Specificity [2, 5]: 100% | matched patients in whom primary disease was correctly characterized ([2]; n=47 matched with MRI): 94% | more patients correctly characterized than by the MRI reader ([2]; n=47 matched with MRI): 13%
